# US20110165145A1, “IGF-II/IGF-IIE BINDING PROTEINS” (priority 2008, published 2011)
# What was measured:
# [1] = system: Colo205 cells; test: Colo205 cell proliferation in complete medium containing 10% FBS; type: cell-based; conditions: 2 μM, 4 days
# Procedure: The plate was placed in a 37° C. incubator with 5% CO2 for 4 days. Proliferation was measured by CellTiter 96Aqueous One Solution Reagent (Promega). […] Colo205 cells have two cell populations in culture vessels.
# [2] = system: IGF-II-induced IGF-1R phosphorylation in HepG2 cells; test: IGF-II-induced IGF-1R phosphorylation in HepG2 cells (IP/WB); type: cell-based; conditions: 10 min
# Procedure: (§1) After being washed twice with ice-cold PBS containing 1 mM sodium orthovanadate, cells were lysed and immunoprecipitated with anti-IGF-IR antibody. Immunoprecipitated proteins were resolved in a 4-12% Bis-tris gel, and transferred to a PVDF membrane. The membrane was probed with anti-phospho-IGF-IR (p-IGF-1R) antibody first, and then stripped and re-probed with anti-IGF-IR antibody for detection of total IGF-1R proteins.
# [3] = system: IGF-I induced IGF-IR phosphorylation; test: IGF-I induced IGF-IR phosphorylation in Hep3B cells (IP/WB); type: cell-based; conditions: 10 nM DX-2647
# Procedure: as §1
# [4] = biological target: T1, IGF-IIE (Homo sapiens, UniProt P01344); test: SPR assays of DX-2647 binding to IGF-IIE complexed with receptors/IGFBPs; conditions: FIGS. 5A and 5B
# T1 construct: the construct comprising amino acids 1-104, which encompass the E domain
# T1 sequence (P01344 25-128): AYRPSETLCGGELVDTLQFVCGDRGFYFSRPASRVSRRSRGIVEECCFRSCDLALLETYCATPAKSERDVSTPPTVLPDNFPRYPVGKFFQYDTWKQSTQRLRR
# From the text: (§2) While the IGF-IR and IR-A are the principal mediators of the biological activity of IGF-II, the protein can bind with high affinity to a number of other proteins that include a family of six serum IGF-binding proteins (IGFBP 1-6), and the cell-surface mannose-6-phosphate receptor (IGF-IIR).
# [5] = system: HepG2 cells; test: HepG2 anchorage dependent colony formation; type: cell-based; conditions: 1 nM; 10% FBS; 7 days
# Procedure: HepG2 cells were seeded into a 6-well plate at 1000 cells/well in 2 ml of culture medium containing 10% FBS. […] Isotype control IgG (Ctrl. IgG) was used at 100 nM. After incubation cells were fixed and stained with crystal violet blue. Five pictures were taken randomly from each well and data were analyzed using the MetaMorph software. The results are summarized graphically in FIG. 10.
# [6] = system: human SKUT-1 myosarcoma cell; test: Cisplatin (CDDP)-induced cytotoxicity in SKUT-1 cells (CellTitreBlue); type: cell-based; conditions: 20% FCS, 48 hours
# [7] = system: IGF-II induced Colo205 cell proliferation; test: IGF-II induced Colo205 cell proliferation in serum free medium; type: cell-based; conditions: 2 nM IGF-II, 96 h
# Procedure: In this experiment, cells were cultured in serum free medium containing 2 nM IGF-II. […] Neutralizing IGF-II antibody (R&D Systems) was used at 333 nM as a positive control. […] IGF-II neutralizing antibody from R&D at 333 nM was used as a positive control. The plate was placed in a 37° C. incubator with 5% CO2 for 4 days. Proliferation was measured by CellTiter 96Aqueous One Solution Reagent (Promega).
# [8] = biological target: T1, IGF-IIE; test: SPR affinity of DX-2647 (IgG captured on anti-human Fc chip), IGF-IIE; conditions: 1:1 binding model
# [9] = system: IGF-IR phosphorylation in Colo205 cells; test: IGF-IR phosphorylation in Colo205 cells; type: cell-based
# From the text: Upon ligand binding, IGF-1R undergoes autophosphorylation on tyrosine residues of the two β-subunits.
# [10] = system: HepG2 human hepatoma cells; test: HepG2 anchorage-independent colony formation in soft agar; type: cell-based; conditions: 10% FCS, two weeks
# Procedure: Cells were seeded in growth medium plus 10% FCS in soft agar in the presence of increasing concentrations of antibody. Colonies>50 cells were counted after two weeks. […]
# [11] = system: autocrine IGF-II induced IGF-1R phosphorylation in Hep3B cells; test: Autocrine (endogenous) IGF-II induced IGF-1R phosphorylation in Hep3B cells (IP/WB); type: cell-based; conditions: 10 nM, 48 h serum free
# Procedure: Hep3B cells synthesize and secrete IGF-II which in turn binds IGF-1R and induces IGF-1R phosphorylation in an autocrine fashion. The autocrine IGF-II induced IGF-1R phosphorylation can be detected by IP/WB analysis after 48 h serum starvation of cells. […] To perform the experiments, Hep3B cells were seeded and cultured for 24 h. […] After being washed twice with ice-cold PBS containing 1 mM sodium orthovanadate, cells were lysed and immunoprecipitated with anti-IGF-IR antibody. Immunoprecipitated proteins were resolved in a 4-12% Bis-tris gel, and transferred to a PVDF membrane. The membrane was probed with anti-phospho-IGF-IR (p-IGF-1R) antibody first, and then stripped and re-probed with anti-IGF-IR antibody for detection of total IGF-1R proteins.
# [12] = system: Hep3B cells; test: Hep3B anchorage dependent colony formation assay; type: cell-based; conditions: two concentrations; 10% FBS; 1 week
# From the text: Colonies>50 cells were scored in three independent experiments, each with triplicate dishes.
# [13] = system: IGF-II-induced IGF-1R phosphorylation in Hep3B cells; test: IGF-II-induced IGF-1R phosphorylation in Hep3B cells (IP/WB); type: cell-based
# Procedure: as §1
# [14] = biological target: IGF-I (Homo sapiens, UniProt P05019); test: SPR affinity of DX-2647, IGF-I; conditions: 1:1 binding model
# Sequence of IGF-I (P05019 49-118 limits assumed, species assumed): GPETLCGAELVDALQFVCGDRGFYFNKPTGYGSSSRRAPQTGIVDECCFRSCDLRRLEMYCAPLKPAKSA
# From the text: IGF-II and the related growth factor, IGF-I, share 70% homology at the amino acid level.
# [15] = biological target: T2, IGF-II (Homo sapiens, UniProt P01344); test: SPR assays of DX-2647 binding to IGF-II complexed with receptors/IGFBPs
# T2 construct: IGF-II (amino acids 1-67)
# T2 sequence (P01344 25-91): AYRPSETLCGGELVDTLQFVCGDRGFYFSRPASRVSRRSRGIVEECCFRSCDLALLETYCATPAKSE
# From the text: as §2
# [16] = biological target: T2, IGF-II; test: SPR affinity of DX-2647 (IgG captured on anti-human Fc chip), IGF-II; conditions: 1:1 binding model
# [17] = system: human breast cancer cells; conditions: immunodeficient mice; cited from earlier work
substance,measurement,setting,value
DX-2647: IGF II/IGF IIE inhibitory antibody germlined from 566A-M0064-F02 parental clone; SEQ ID NO: 59 and 60,inhibition of Colo205 proliferation in complete growth medium,[1],significantly inhibited
same,inhibition of IGF-II-induced IGF-1R phosphorylation,"[2]; 0.3 nM DX-2647, IGF-II 2.6 nM",Partial inhibition
same,inhibition of IGF-II-induced IGF-1R phosphorylation,"[2]; 3 nM DX-2647, IGF-II 2.6 nM",complete inhibition
same,inhibition of IGF-I induced IGF-IR phosphorylation,[3],failed to show significant inhibition
same,ability to bind IGF-IIE complexed with the IGFBPs assayed,[4],inhibited
same,blocking of IGF-IIE binding to all three cell-surface receptors for IGF-II,[4],blocks the binding
same,inhibition of colony-forming ability of HepG2 cells,[5],significantly inhibited
same,enhancement of cisplatin (CDDP)-induced cellular cytotoxicity,[6],potently enhanced
same,inhibition of IGF-II induced Colo205 cell proliferation,[7],inhibited
same,lowest concentration showing maximum potency in inhibiting IGF-II stimulated Colo205 proliferation,[7]; 1 nM to 100 nM tested,10 nM
same,ka IGF-IIE,[8],2.06 E6 M-1s-1
same,kd IGF-IIE,[8],less than 2 E-5 s-1
same,effective concentration for inhibition of IGF-IR phosphorylation,[9],10 nM
same,inhibition of HepG2 colony formation in soft agar,[10],strongly inhibited
same,IC50,"[10]; ±0.74 standard error, read-out: mean IC50, anchorage-independent growth of HepG2 cells",1.5 nM
same,inhibition of autocrine IGF-II induced IGF-1R phosphorylation,[11],significant inhibitory effect
same,inhibition of colony formation of Hep3B cells,[12],inhibited colony formation in a dose-dependent manner
same,inhibition of IGF-II-induced IGF-1R phosphorylation,[13]; 0.1 nM DX-2647,partial inhibition
same,inhibition of IGF-II-induced IGF-1R phosphorylation,[13]; 1 nM DX-2647,complete inhibition
same,ka IGF-I,[14],5.8e+06 M⁻¹ s⁻¹
same,kd IGF-I,[14],0.1 s⁻¹
same,ability to bind IGF-II complexed with the IGFBPs assayed,[15]; FIGS. 5A and 5B,inhibited
same,blocking of IGF-II binding to all three cell-surface receptors for IGF-II,[15]; FIGS. 5A and 5B,blocks the binding
same,binding to IGFBP-1 alone,"[15]; Fc-captured antibody, FIG. 5A",does not bind
same,binding to free IGF-II,"[15]; Fc-captured antibody, FIG. 5A",binds free IGF-II
same,binding to pre-formed complex of IGF-II and IGFBP-1,"[15]; Fc-captured antibody, FIG. 5A",does not bind
same,ka IGF-II,[16],1.06 E6 M-1s-1
same,kd IGF-II,[16],2.38 E-5 s-1
"pegvisomant: PEGylated analog of human growth hormone, 191 amino acid residues, acting as GH receptor antagonist",growth of human breast cancer cells grown as xenografts,[17],inhibits the growth
